Results taken from patent US20250066346A1, “SOLID FORMS OF A BENZTHIAZOLE-PIPERAZINYL-OXAZOLE COMPOUND AND METHODS OF USE THEREOF” (Hepagene Therapeutics (HK) Limited, priority 2022, published 2025).
In brackets after ≈: the same amount, converted by molar mass.

Tests used:
Format in all cases: physicochemical
[1] = Form conversion by variable-temperature XRPD (VT-XRPD)
Experimental: […] 22.
Based on data above, it would convert to dehydrate state (HCl salt Form C) at low humidity and back to hydrate at high humidity.
HBr salt Form E was observed after N2 purging HBr salt Form D for 20 min at 30° C. via variable-temperature XRPD (VT-XRPD) shown in FIG. 23.
Based on data above, it would convert to dehydrate state (HBr salt Form E) at low humidity and back to hydrate at high humidity.

[2] = Approximate solubility of Form A in solvents at room temperature (stepwise solvent addition, visual); settings: organic solvent or mixture, thermodynamic from solid
Experimental: Approximately 2 mg of Form A of Compound I was added into a 3-mL glass vial. At room temperature, the solvents in Table 8 were then added stepwise into the vials until the solids were dissolved visually or a total volume of 2 mL was reached.

[3] = Kinetic solubility in water and bio-relevant media (SGF, FaSSIF, FeSSIF) at 37° C.; set-up: key to FC: form change: Yes: form changed; No: form not changed; settings: for pH: filtered supernatant
Experimental: Agilent 1260 HPLC was utilized and detailed chromatographic conditions are provided in Tables 3 and 4 for purity and solubility test, respectively.
About 20 mg of free base (form A) HCl salt (form B), and HBr salt (form D) were added to a 5-mL glass vials followed by the addition of 4 mL of the corresponding medium/solvent into each glass vial to form a suspension. The vials were capped and rolled at 37° C. (25 rpm). Samples were removed (1 mL) at 1 h, 4 h, and 24 h and centrifuged (14000 rpm, 2 min, room temperature). The supernatant was filtered through 0.22 μm syringe filter (first few drops of filtrate were discarded) for HPLC solubility and pH tests (Table 15). The residual solids were analyzed by XRPD.

[4] = Solid state stability (XRPD for physical stability, HPLC purity for chemical stability); settings: for Purity/initial purity: HPLC; for Form change: XRPD
From the text: All the samples were characterized by XRPD for physical stability and HPLC purity for chemical stability evaluation (Table 16).

[5] = Hygroscopicity by dynamic vapor sorption (DVS) at 25° C.
Experimental: DVS was measured via a SMS (Surface Measurement Systems) DVS Intrinsic. The relative humidity at 25° C. was calibrated against deliquescence point of LiCl, Mg(NO3)2 and KCl.

## COc1cc(C(=O)O)cc2sc(N3CCN(Cc4c(-c5c(Cl)cccc5Cl)noc4C4CC4)C[C@H]3C)nc12 [Form E, (R)-2-(4-((5-cyclopropyl-3-(2,6-dichlorophenyl)isoxazol-4-yl)methyl)-2-methylpiperazin-1-yl)-4-methoxybenzo[d]thiazole-6-carboxylic acid]
[1]; ambient conditions for about 10 min
  form after exposing to ambient conditions: HBr salt Form D was re-obtained
[1]; with N2 protection, VT-XRPD
  form change after heating to 120° C. and cooling to 30° C.: no form change occurred

## COc1cc(C(=O)O)cc2sc(N3CCN(Cc4c(-c5c(Cl)cccc5Cl)noc4C4CC4)C[C@H]3C)nc12 [Form A, (R)-2-(4-((5-cyclopropyl-3-(2,6-dichlorophenyl)isoxazol-4-yl)methyl)-2-methylpiperazin-1-yl)-4-methoxybenzo[d]thiazole-6-carboxylic acid]
[2]; 2-MeTHF
  solubility: > 40 mg/mL
[2]; ACN
  solubility: 4.8 to 9.5 mg/mL (≈ 8.37 to 16.6 mM)
[2]; Acetone
  solubility: > 42 mg/mL
[2]; CPME
  solubility: 11.5 to 23 mg/mL (≈ 20.1 to 40.1 mM)
[2]; CPME/n-heptane (2:1)
  solubility: 2.3 to 4.6 mg/mL (≈ 4.01 to 8.02 mM)
[2]; EtOAc
  solubility: 10 to 20 mg/mL (≈ 17.4 to 34.9 mM)
[2]; IPAc
  solubility: 3.8 to 6.3 mg/mL (≈ 6.63 to 11 mM)
[2]; MIBK
  solubility: 10 to 20 mg/mL (≈ 17.4 to 34.9 mM)
[2]; MIBK/n-heptane (2:1)
  solubility: 4.2 to 7 mg/mL (≈ 7.32 to 12.2 mM)
[2]; MeOH
  solubility: 10.5 to 21 mg/mL (≈ 18.3 to 36.6 mM)
[2]; MeOH/H2O (9:1)
  solubility: 5.3 to 10.5 mg/mL (≈ 9.24 to 18.3 mM)
[2]; THF
  solubility: > 40 mg/mL
[2]; THF/n-heptane (2:1)
  solubility: > 38 mg/mL
[3]; FaSSIF, 1 hr
  FC: form change: No
  S: solubility: 0.016 mg/mL
  pH: 6.4
[3]; FaSSIF, 4 hrs
  FC: form change: No
  S: solubility: 0.017 mg/mL
  pH: 6.5
[3]; FaSSIF, 24 hrs
  FC: form change: No
  S: solubility: 0.022 mg/mL
  pH: 6.4
[3]; FeSSIF, 1 hr
  FC: form change: No
  S: solubility: 0.051 mg/mL
  pH: 5.0
[3]; FeSSIF, 4 hrs
  FC: form change: No
  S: solubility: 0.056 mg/mL
  pH: 5.1
[3]; FeSSIF, 24 hrs
  FC: form change: No
  S: solubility: 0.056 mg/mL
  pH: 5.1
[3]; H2O, 1 hr
  FC: form change: No
  S: solubility: 0.003 mg/mL
  pH: 6.2
[3]; H2O, 4 hrs
  FC: form change: No
  S: solubility: 0.0023 mg/mL
  pH: 6.3
[3]; H2O, 24 hrs
  FC: form change: No
  S: solubility: 0.0046 mg/mL
  pH: 6.4
[3]; SGF, 1 hr
  FC: form change: No
  S: solubility: 0.020 mg/mL
  pH: 2.1
[3]; SGF, 4 hrs
  FC: form change: No
  S: solubility: 0.018 mg/mL
  pH: 1.8
[3]; SGF, 24 hrs
  FC: form change: No
  S: solubility: 0.017 mg/mL
  pH: 2.0
[3]; water, 37 °C, thermodynamic from solid, text summary of Table 15
  solubility: < 7 µg/mL
[4]; 25° C./60% RH/1 week
  Purity/initial purity: 100.0%
  Form change: No
[4]; 40° C./75% RH/1 week
  Purity/initial purity: 99.9%
  Form change: No
[4]; 80° C./1 day, 25° C./60% RH/1 week, 40° C./75% RH/1 week
  solid state stability (overall, in words): good solid state stability
[4]; 80° C./1 day
  Purity/initial purity: 99.8%
  Form change: No
[5]; DVS
  hygroscopicity (in words): non-hygroscopic
[5]; at 80% RH
  water uptake: 0.15%
